# Laboratory results from US20240150368A1, “ULK INHIBITORS AND METHODS OF USE THEREOF” (Deciphera Pharmaceuticals, LLC, priority 2022, published 2024).
# Experiments:
# ULK1 kinase = target: T1, ULK1 kinase (Homo sapiens, UniProt O75385, E37A/K38A); assay: Biochemical assay for ULK1 (coupled pyruvate kinase/lactate dehydrogenase assay); details: 1 mM ATP, 0.1 nM ULK1; read-out: ULK1 (inhibition of biochemical activity), IC50
# T1 construct: (residues 1-283; ID NO: 1); purchased Beryllium
# T1 sequence (O75385 1-283 E37A/K38A): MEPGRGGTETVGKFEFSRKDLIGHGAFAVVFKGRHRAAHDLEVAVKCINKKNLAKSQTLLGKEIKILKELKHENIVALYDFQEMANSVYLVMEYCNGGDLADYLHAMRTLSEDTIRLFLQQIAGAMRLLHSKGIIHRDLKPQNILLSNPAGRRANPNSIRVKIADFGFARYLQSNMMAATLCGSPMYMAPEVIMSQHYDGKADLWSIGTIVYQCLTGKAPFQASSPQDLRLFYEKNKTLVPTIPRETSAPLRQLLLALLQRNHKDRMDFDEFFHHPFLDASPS
# Procedure: Biochemical Assay for ULK1 (SEQ. ID NO: 1)
# Activity of ULK1 kinase was determined spectroscopically using a coupled pyruvate kinase/lactate dehydrogenase assay that continuously monitors the ATP hydrolysis-dependent oxidation of NADH (e.g., Schindler et al. Science (2000) 289: 1938-1942). Assays were conducted in 384-well plates (100 μL final volume) using 0.1 nM ULK1 (from Beryllium), 0.075 mM peptide substrate (YANWLAASIYLDGKKK), 1.5 units pyruvate kinase, 2.1 units lactate dehydrogenase, 1 mM phosphoenol pyruvate, 0.28 mM NADH and 1 mM ATP in assay buffer (100 mM Tris, pH 7.5, 15 mM MgCl2, 0.5 mM DTT, 0.004% (w/v) BSA, and 0.004% Triton X-100). Inhibition of ULK1 was measured by adding serial diluted test compound (final assay concentration of 1% DMSO). A decrease in absorption at 340 nm was monitored continuously for 6 h at 30° C. on a multi-mode microplate reader (BioTek). The reaction rate was calculated using the 2-3 h time frame. The reaction rate at each concentration of compound was converted to percent inhibition using controls (i.e., reaction with no test compound and reaction with a known inhibitor) and IC50 values were calculated using software routines in Prism (GraphPad software).
# ULK2 kinase = target: T2, ULK2 kinase (Homo sapiens, UniProt Q8IYT8); assay: Biochemical assay for ULK2 (coupled pyruvate kinase/lactate dehydrogenase assay); details: 1 mM ATP, 1 nM ULK2; read-out: ULK2 (inhibition of biochemical activity), IC50
# T2 construct: (residues 1-306 with N-terminal GST and His tag; ID NO: 2); purchased Signal Chem U02-11G
# T2 sequence (Q8IYT8 with tags, fused parts or gaps): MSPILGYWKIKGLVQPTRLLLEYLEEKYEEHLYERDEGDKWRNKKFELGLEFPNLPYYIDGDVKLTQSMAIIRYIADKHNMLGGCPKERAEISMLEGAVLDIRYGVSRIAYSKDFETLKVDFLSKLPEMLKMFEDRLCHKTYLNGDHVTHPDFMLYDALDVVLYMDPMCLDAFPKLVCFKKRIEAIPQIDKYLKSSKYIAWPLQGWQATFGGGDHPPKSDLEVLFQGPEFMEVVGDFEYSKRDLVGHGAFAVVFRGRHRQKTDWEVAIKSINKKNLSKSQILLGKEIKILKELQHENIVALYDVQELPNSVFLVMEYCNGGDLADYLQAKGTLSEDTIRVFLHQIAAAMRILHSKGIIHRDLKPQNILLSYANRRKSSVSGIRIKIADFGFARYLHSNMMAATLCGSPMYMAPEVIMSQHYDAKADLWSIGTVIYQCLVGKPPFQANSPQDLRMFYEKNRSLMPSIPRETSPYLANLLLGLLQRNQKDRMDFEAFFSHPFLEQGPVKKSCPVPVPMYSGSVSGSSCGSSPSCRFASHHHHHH
# Procedure: Biochemical Assay for ULK2 (SEQ. ID NO: 2)
# Activity of ULK2 kinase was determined spectroscopically using a coupled pyruvate kinase/lactate dehydrogenase assay that continuously monitors the ATP hydrolysis-dependent oxidation of NADH (e.g., Schindler et al. Science (2000) 289: 1938-1942). Assays were conducted in 384-well plates (100 μL final volume) using 1 nM ULK2 (Signal Chem U02-11G), 200 μM ULKtide, 1.5 units pyruvate kinase, 2.1 units lactate dehydrogenase, 1 mM phosphoenol pyruvate, 0.28 mM NADH and 1 mM ATP in assay buffer (100 mM Tris, pH 7.5, 15 mM MgCl2, 0.5 mM DTT, 0.1% octyl-glucoside, 0.002% (w/v) BSA, and 0.002% Triton X-100). Inhibition of ULK2 was measured by adding serial diluted test compound (final assay concentration of 1% DMSO). A decrease in absorption at 340 nm was monitored continuously for 6 h at 30° C. on a multi-mode microplate reader (BioTek). The reaction rate was calculated using the 2-3 h time frame. The reaction rate at each concentration of compound was converted to percent inhibition using controls (i.e., reaction with no test compound and reaction with a known inhibitor) and IC50 values were calculated by fitting a four-parameter sigmoidal curve to the data using Prism (GraphPad software).
SMILES,IC50 (ULK1 kinase),IC50 (ULK2 kinase)
CC/C(Nc1cnn2c1CCC2)=C1/C(=O)Nc2ccc(C(=O)NCC(F)(F)F)cc21 [Example 121],> 500 nM,> 500 nM
CC/C(Nc1cnn(C(C)C)c1)=C1/C(=O)Nc2ccc(C(=O)N(C)C[C@H]3CCCO3)cc21 [Example 129],10 to 100 nM,100 to 500 nM
CC/C(Nc1cnn(C(C)C)c1)=C1/C(=O)Nc2ccc(C(=O)NC3CC3)cc21 [Example 131],100 to 500 nM,100 to 500 nM
CC/C(Nc1cnn(C(C)C)c1)=C1/C(=O)Nc2ccc(C(=O)NC(C)C)cc21 [Example 132],100 to 500 nM,> 500 nM
CC/C(Nc1cnn(C(C)C)c1)=C1/C(=O)Nc2ccc(C(=O)NC)cc21 [Example 133],100 to 500 nM,> 500 nM
CC/C(Nc1cnn(C2CCN(C(C)C)CC2)c1)=C1/C(=O)Nc2ccc(C(=O)N(C)OC)cc21 [Example 139],100 to 500 nM,–
CC/C(Nc1cnn(C(C)C)c1)=C1/C(=O)Nc2cc(Cl)c(C(=O)NCC(F)(F)F)cc21 [Example 141],100 to 500 nM,100 to 500 nM
CC/C(Nc1nc(C)co1)=C1/C(=O)Nc2ccc(C(=O)NCC(F)(F)F)cc21 [Example 143],100 to 500 nM,> 500 nM
CC/C(Nc1nnc(C)o1)=C1/C(=O)Nc2ccc(C(=O)NCC(C)(C)F)cc21 [Example 146],100 to 500 nM,100 to 500 nM
CC/C(Nc1cnn(C(C)C)c1)=C1/C(=O)Nc2ccc(C(=O)N3CC[C@@H](C(F)(F)F)C3)cc21 [Example 150],100 to 500 nM,> 500 nM
CC/C(Nc1cnn(C(C)C)c1)=C1/C(=O)Nc2ccc(C(=O)N3CC[C@H](C(F)(F)F)C3)cc21 [Example 151],10 to 100 nM,100 to 500 nM
CC/C(Nc1ncc(C)o1)=C1/C(=O)Nc2ccc(C(=O)NCC(F)(F)F)cc21 [Example 155],10 to 100 nM,100 to 500 nM

# Continued, values first:
IC50 (ULK1 kinase),IC50 (ULK2 kinase),SMILES
> 500 nM,> 500 nM,CC/C(Nc1cnn(C(C)C)c1)=C1/C(=O)Nc2ccc(C(=O)NCCN3CCC3)cc21 [Example 162]
10 to 100 nM,100 to 500 nM,CC/C(Nc1cnn(C(C)C)c1)=C1/C(=O)Nc2ccc(C(=O)NCC3(OC)CC3)cc21 [Example 163]
≤ 10 nM,10 to 100 nM,CC/C(Nc1cnn(C(C)C)c1)=C1/C(=O)Nc2ccc(C(=O)NCCC(C)(C)F)cc21 [Example 164]
≤ 10 nM,≤ 10 nM,CC/C(Nc1cnn(C2CCC2)c1)=C1/C(=O)Nc2ccc(C(=O)NCC(C)(C)F)cc21 [Example 165]
100 to 500 nM,100 to 500 nM,CC/C(Nc1cnn(C(C)C)c1)=C1/C(=O)Nc2ccc(C(=O)NC(C)(C)CC(F)(F)F)cc21 [Example 167]
100 to 500 nM,100 to 500 nM,CC/C(Nc1cnn(C(C)C)c1)=C1/C(=O)Nc2ncc(C(=O)NCC(C)(C)F)cc21 [Example 170]
100 to 500 nM,100 to 500 nM,CC/C(Nc1cnn(C(C)C)c1)=C1/C(=O)Nc2ncc(C(=O)NCC(F)(F)F)cc21 [Example 171]
10 to 100 nM,100 to 500 nM,CC/C(Nc1cnn(C(C)C)c1)=C1/C(=O)Nc2ncc(C(=O)NCC3(F)CC3)cc21 [Example 172]
≤ 10 nM,100 to 500 nM,CC/C(Nc1cnn(C(C)C)c1)=C1/C(=O)Nc2ccc(C(=O)N(CC(F)(F)F)C3CC3)cc21 [Example 175]
> 500 nM,> 500 nM,CC/C(Nc1cnn(C(C)C)c1)=C1/C(=O)Nc2ccc(C(=O)CN(C)C)cc21 [Example 176]
> 500 nM,> 500 nM,CC/C(Nc1cnn(C(C)C)c1)=C1/C(=O)Nc2ccc(C(=O)Nc3cnn(CC(F)(F)F)c3)cc21 [Example 178]
> 500 nM,> 500 nM,CC/C(Nc1cncc(C(C)C)c1)=C1/C(=O)Nc2ccc(C(=O)NCC(F)(F)F)cc21 [Example 182]
10 to 100 nM,10 to 100 nM,CC/C(Nc1cnn(C(C)C)c1)=C1/C(=O)Nc2ccc(C(N)=O)cc21 [Example 183]
